Measured values from US9926330B2, “Inhibitors of IRAK4 activity” (MERCK SHARP & DOHME CORP., priority 2014, dated 2018).

These molecules were tested against GST tagged IRAK4 (Homo sapiens (Human), UniProt Q9NWZ3) (assay: IRAK4 Kinase Assay (IMAP fluorescence polarization)). Details: 0.5 nM GST tagged IRAK4, 100 nM fluorescent peptide substrate RP7030, 100 μM ATP, 30 minutes at 25° C., IMAP FP readout.
Chain of GST tagged IRAK4 (Q9NWZ3 whole entry): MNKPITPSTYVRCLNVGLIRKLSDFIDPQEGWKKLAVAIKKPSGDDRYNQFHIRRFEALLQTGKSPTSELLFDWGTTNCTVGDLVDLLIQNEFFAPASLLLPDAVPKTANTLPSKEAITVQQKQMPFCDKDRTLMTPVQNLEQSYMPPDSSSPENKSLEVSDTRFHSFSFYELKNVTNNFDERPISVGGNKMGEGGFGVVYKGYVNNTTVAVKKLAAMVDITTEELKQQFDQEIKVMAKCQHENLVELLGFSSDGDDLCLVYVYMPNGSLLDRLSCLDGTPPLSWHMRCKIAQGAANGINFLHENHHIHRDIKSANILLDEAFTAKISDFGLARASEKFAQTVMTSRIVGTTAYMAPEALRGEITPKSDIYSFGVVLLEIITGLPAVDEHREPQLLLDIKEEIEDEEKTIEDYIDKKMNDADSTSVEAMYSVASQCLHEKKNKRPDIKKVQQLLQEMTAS
Format: biochemical
Procedure: The kinase activity of IRAK4 is determined by its ability to catalyze the phosphorylation of a fluorescent polypeptide substrate. The extent of phosphorylation is measured using the IMAP technology (Molecular Devices) where the phosphorylated fluorescent substrate binds to the large M(III)-based nanoparticles which reduces the rotational speed of the substrate and thus increases its fluorescent polarization (FP).
20 μL reaction mixture contains 10 mM TriHCl, pH 7.2, 0.5 nM GST tagged IRAK4 (SignalChem), 100 nM fluorescent peptide substrate (RP7030, Molecular Devices), 100 μM ATP, 1 mM DDT, 1 mM MgCl2, and 0.01% Tween 20. The reaction is initiated by the addition of ATP. After incubation for 30 minutes at 25° C., 60 μL of Progressive IMAP Reagent (Molecular Devices) is added to stop the reaction. Change in RP7030's FP is determined by a FP reader (Analyst HT, LJL BioSystems).
In the case of `Cc1ccc2ncnc(N[C@H]3CC[C@H](N4CC(O)C4)CC3)c2c1` [Example 2-6, 1-{trans-4-[(6-methylquinazolin-4-yl)amino]cyclohexyl}azetidin-3-ol], the IC50 is reported as 2.35 µM.
In the case of `Cc1ccc2ncnc(NC3CCC(N4CCC(C(F)(F)F)CC4)CC3)c2c1` (stereo not shown) [Example 2-12, 6-methyl-N-{4-[4-(trifluoromethyl)piperidin-1-yl]cyclohexyl}quinazolin-4-amine], the IC50 is reported as 9.38 µM.
`CN(C)[C@H]1CC[C@H](Nc2ncnc3ccc(CO)cc23)CC1` [Example 8-1, (4-(((trans)-4-(dimethylamino)cyclohexyl)amino)quinazolin-6-yl)methanol] gave an IC50 of 0.029 µM.
`Cc1ccc2ncnc(NC3CCC(N4CCCC(C(F)(F)F)C4)CC3)c2c1` (stereo not shown) [Example 2-16, 6-methyl-N-{4-[3-(trifluoromethyl)piperidin-1-yl]cyclohexyl}quinazolin-4-amine] was tested, and the IC50 was 0.269 µM.
`Cc1ccc2ncnc(N[C@H]3CC[C@H](NCc4cccs4)CC3)c2c1` [Example 2-20, trans-N-(6-methylquinazolin-4-yl)-N′-(thiophen-2-ylmethyl)cyclohexane-1,4-diamine] showed an IC50 of 0.045 µM.
In the case of `CCCCc1ccc2ncnc(N[C@H]3CC[C@H](N4CCOCC4)CC3)c2c1` [Example 4-3, 6-butyl-N-(trans-4-morpholin-4-ylcyclohexyl)quinazolin-4-amine], the IC50 is reported as 0.034 µM.
In the case of `CCc1ccc2ncnc(N[C@H]3CC[C@H](N(C)C)CC3)c2c1` [Example 4-1, (trans)-N1-(6-ethylquinazolin-4-yl)-N4,N4-dimethylcyclohexane-1,4-diamine], the IC50 is reported as 0.018 µM.
For `Cc1ccc2ncnc(N[C@H]3CC[C@H](N(C)C)CC3)c2c1` [Example 1-2, trans-N,N-dimethyl-N′-(6-methylquinazolin-4-yl)cyclohexane-1,4-diamine], the IC50 was 0.019 µM.
In the case of `Cc1ccc2ncnc(NC3CCC(N4CCC(C(F)(F)F)CC4)CC3)c2c1` (stereo not shown) [Example 2-11, 6-methyl-N-{4-[4-(trifluoromethyl)piperidin-1-yl]cyclohexyl}quinazolin-4-amine], the IC50 is reported as 0.088 µM.
Work on `Cc1ccc2ncnc(N[C@H]3CC[C@H](N4CCS(=O)(=O)CC4)CC3)c2c1` [Example 6-1, 4-((trans)-4-((6-methylquinazolin-4-yl)amino)cyclohexyl)thiomorpholine-1,1-dioxide] yielded an IC50 of 0.623 µM.
With `Cc1cc2ncnc(N[C@H]3CC[C@H](N(C)C)CC3)c2cc1C` [Example 1-1, (trans)-N1-(6,7-dimethylquinazolin-4-yl)-N4,N4-dimethylcyclohexane-1,4-diamine] the IC50 was 1.21 µM.
`Cc1ccc2ncnc(N[C@H]3CC[C@H](NCC4(C)COC4)CC3)c2c1` [Example 2-27, trans-N-[(3-methyloxetan-3-yl)methyl]-N′-(6-methylquinazolin-4-yl)cyclohexane-1,4-diamine] was tested, and the IC50 was 0.077 µM.
With `Cc1ccc2ncnc(O[C@H]3CC[C@H](N4CCOCC4)CC3)c2c1` [Example 1-7, 4-((trans)-4-((6-methylquinazolin-4-yl)oxy)cyclohexyl)morpholine] the IC50 was 0.065 µM.
`Cc1ccc2ncnc(N[C@H]3CC[C@H](N[C@H]4CCOC(C)(C)C4)CC3)c2c1` [Example 2-19, trans-N-[(4S)-2,2-dimethyltetrahydro-2H-pyran-4-yl]-N′-(6-methylquinazolin-4-yl)cyclohexane-1,4-diamine] gave an IC50 of 0.054 µM.
Molecule `CC(O)c1ccc2ncnc(N[C@H]3CC[C@H](N(C)C)CC3)c2c1` (stereo partly drawn) [Example 5-4, 1-(4-{[trans-4-(dimethylamino)cyclohexyl]amino}quinazolin-6-yl)ethanol] has an IC50 of 0.029 µM.
With `CCc1ccc2ncnc(N[C@H]3CC[C@H](N4CCOCC4)CC3)c2c1` [Example 3-4, 6-ethyl-N-(trans-4-morpholin-4-ylcyclohexyl)quinazolin-4-amine] the IC50 was 0.008 µM.
For `COC/C=C/c1ccc2ncnc(N[C@H]3CC[C@H](N(C)C)CC3)c2c1` [Example 3-3, trans-N′-{6-[(1E)-3-methoxyprop-1-en-1-yl]quinazolin-4-yl}-N,N-dimethylcyclohexane-1,4-diamine], the IC50 was 0.054 µM.
`Cc1ccc2ncnc(N[C@H]3CC[C@@H](N4CC(O)C4)CC3)c2c1` [Example 2-7, 1-{cis-4-[(6-methylquinazolin-4-yl)amino]cyclohexyl}azetidin-3-ol] gave an IC50 of 0.037 µM.
For `Cc1ccc2ncnc(N[C@H]3CC[C@H](NCCC(F)(F)F)CC3)c2c1` [Example 2-28, trans-N-(6-methylquinazolin-4-yl)-N′-(3,3,3-trifluoropropyl)cyclohexane-1,4-diamine], the IC50 was 0.025 µM.
With `Cc1ccc2ncnc(N[C@H]3CC[C@H](N[C@@H](C)C(C)(C)O)CC3)c2c1` [Example 2-23, (3S)-2-methyl-3-({trans-4-[(6-methylquinazolin-4-yl)amino]cyclohexyl}amino)butan-2-ol] the IC50 was 0.123 µM.
`Cc1ccc2ncnc(NC3CCC(N4CCCCC4C(F)(F)F)CC3)c2c1` (stereo not shown) [Example 2-15, 6-methyl-N-{4-[2-(trifluoromethyl)piperidin-1-yl]cyclohexyl}quinazolin-4-amine] gave an IC50 of 1.76 µM.
`Cc1ccc2ncnc(NC3CCC(N4CCCCC4C(F)(F)F)CC3)c2c1` (stereo not shown) [Example 2-14, 6-methyl-N-{4-[2-(trifluoromethyl)piperidin-1-yl]cyclohexyl}quinazolin-4-amine] showed an IC50 of 3.23 µM.
Work on `Cc1ccc2ncnc(N[C@H]3CC[C@H](NCC4CCOCC4)CC3)c2c1` [Example 2-18, trans-N-(6-methylquinazolin-4-yl)-N′-(tetrahydro-2H-pyran-4-ylmethyl)cyclohexane-1,4-diamine] yielded an IC50 of 0.046 µM.
With `Cc1ccc2ncnc(N[C@H]3CC[C@H](N[C@@H](C)CS(C)(=O)=O)CC3)c2c1` [Example 2-31, trans-N-[(1S)-1-methyl-2-(methylsulfonyl)ethyl]-N′-(6-methylquinazolin-4-yl)cyclohexane-1,4-diamine] the IC50 was 0.056 µM.
Work on `Cc1ccc2ncnc(N[C@H]3CC[C@H](NCC4CC4)CC3)c2c1` [Example 2-25, trans-N-(cyclopropylmethyl)-N′-(6-methylquinazolin-4-yl)cyclohexane-1,4-diamine] yielded an IC50 of 0.031 µM.
`Cc1ccc2ncnc(N[C@H]3CC[C@H](NCc4ccnn4C)CC3)c2c1` [Example 2-26, trans-N-[(1-methyl-1H-pyrazol-5-yl)methyl]-N′-(6-methylquinazolin-4-yl)cyclohexane-1,4-diamine] was tested, and the IC50 was 0.047 µM.
`CC(O)CCc1ccc2ncnc(N[C@H]3CC[C@H](N4CCOCC4)CC3)c2c1` (stereo partly drawn) [Example 7-1, 4-(4-(((trans)-4-Morpholinocyclohexyl)amino)quinazolin-6-yl)butan-2-ol] gave an IC50 of 0.062 µM.
In the case of `N#CCCCc1ccc2ncnc(N[C@H]3CC[C@H](N4CCOCC4)CC3)c2c1` [Example 3-5, 4-(4-(((trans)-4-morpholinocyclohexyl)amino)quinazolin-6-yl)butanenitrile], the IC50 is reported as 0.142 µM.
In the case of `CC(C)c1ccc2ncnc(NC3CCC(N(C)C)CC3)c2c1` (stereo not shown) [Example 4-2, N,N-dimethyl-N′-[6-(1-methylethyl)quinazolin-4-yl]cyclohexane-1,4-diamine], the IC50 is reported as 0.016 µM.
`Cc1ccc2ncnc(N[C@H]3CC[C@H](N4CCC(F)(F)C4)CC3)c2c1` [Example 2-8, N-[trans-4-(3,3-difluoropyrrolidin-1-yl)cyclohexyl]-6-methylquinazolin-4-amine] was tested, and the IC50 was 0.234 µM.
Molecule `Cc1ccc2ncnc(NC3CCC(N4CCCC(C(F)(F)F)C4)CC3)c2c1` (stereo not shown) [Example 2-13, 6-methyl-N-{4-[3-(trifluoromethyl)piperidin-1-yl]cyclohexyl}quinazolin-4-amine] has an IC50 of 0.017 µM.
`CN(C)[C@H]1CC[C@H](Nc2ncnc3ccc(CCO)cc23)CC1` [Example 5-1, 2-(4-(((trans)-4-(dimethylamino)cyclohexyl)amino)quinazolin-6-yl)ethan-1-ol] showed an IC50 of 0.017 µM.
In the case of `CN(C)[C@H]1CC[C@H](Nc2ncnc3ccc(/C=C/C4CC4)cc23)CC1` [Example 3-1, (trans)-N1-(6-((E)-2-cyclopropylvinyl)quinazolin-4-yl)-N4,N4-dimethylcyclohexane-1,4-diamine], the IC50 is reported as 0.145 µM.
`CN(C)[C@H]1CC[C@H](Nc2ncnc3ccc(C(F)(F)F)cc23)CC1` [Example 1-6, trans-N,N-dimethyl-N′-[6-(trifluoromethyl)quinazolin-4-yl]cyclohexane-1,4-diamine] showed an IC50 of 0.009 µM.
With `Cc1ccc2ncnc(N[C@H]3CC[C@H](N4CCNC(=O)C4)CC3)c2c1` [Example 2-5, 4-{trans-4-[(6-methylquinazolin-4-yl)amino]cyclohexyl}piperazin-2-one] the IC50 was 0.113 µM.
`Cc1ccc2ncnc(N[C@H]3CC[C@H](N4CC(S(C)(=O)=O)C4)CC3)c2c1` [Example 2-1, 6-methyl-N-((1R,4R)-4-(3-(methylsulfonyl)azetidin-1-yl)cyclohexyl)quinazolin-4-amine] was tested, and the IC50 was 0.384 µM.
`Cc1ccc2ncnc(N[C@H]3CC[C@H](N4CCOCC4)CC3)c2c1` [Example 1-3, 6-methyl-N-(trans-4-morpholin-4-ylcyclohexyl)quinazolin-4-amine] gave an IC50 of 0.012 µM.
`Cc1ccc2ncnc(N[C@H]3CC[C@H](N[C@@H](C)C4CC4)CC3)c2c1` [Example 2-21, trans-N-[(1S)-1-cyclopropylethyl]-N′-(6-methylquinazolin-4-yl)cyclohexane-1,4-diamine] was tested, and the IC50 was 0.073 µM.
`Cc1ccc2ncnc(N[C@H]3CC[C@@H](N4CC(S(C)(=O)=O)C4)CC3)c2c1` [Example 2-10, 6-methyl-N-{cis-4-[3-(methylsulfonyl)azetidin-1-yl]cyclohexyl}quinazolin-4-amine] was tested, and the IC50 was 0.384 µM.
`Cc1ccc2ncnc(N[C@H]3CC[C@H](NC4CCOCC4)CC3)c2c1` [Example 2-17, (trans)-N1-(6-methylquinazolin-4-yl)-N4-(tetrahydro-2H-pyran-4-yl)cyclohexane-1,4-diamine] gave an IC50 of 0.077 µM.
